Data: patent US20070077583A1, “Alpha enolase-directed diagnostics and therapeutics for cancer and chemotherapeutic drug resistance” (Aurelium BioPharma, Inc., priority 2005, published 2007)
Entries after “also recorded” stand apart in the source; their conditions may differ.

Experiments:
[1] = test system: α-enolase; assay: Western blot of α-enolase protein expression after siRNA transfection; type: cell-based, human; settings: for reduction of α-enolase expression: A549 cells; for decrease of levels of expression of α-enolase: MDA-MB-435 cells
Procedure: Western blot analysis utilizing anti-α-enolase antibodies was performed on MOLT4 cell extracts fractionated on SDS-PAGE (FIG. 3). Cells extract were prepared according to the protocol detailed in Example 1. […] Resolved proteins were electrophoretically transferred onto nitrocellulose membranes (Hybond, Amercham Pharmacia Biotech) for 1 hour. […] After blocking the membranes with 5% non-fat milk in 1×PBS overnight at 4° C., all antibody-binding reactions were performed in 5% non-fat milk in 1×PBS for 2 hours at room temperature for primary antibodies and for 1 hour for secondary antibodies coupled to HRP. The signal was detected by the Supersignal west Pico chemiluminescent substrate (Pierce, Rockford, Ill., USA). Two polyclonal antibodies against α-enolase were used: a goat antibody against human α-enolase (Santa Cruz Biotechology, Inc., Santa Cruz, Calif.); rabbit polyclonal antibody against human α-enolase (NNE) (MorphoSys AG, Munich, Del.). Membranes were subsequently blotted with anti-GAPDH (Novus Biologicals, Inc., Littleton, Colo.) or anti-prohibitin mouse monoclonal antibody (Lab Vision Corp., Fremont, Calif.) as controls for protein loading. To establish the importance of α-enolase to the expression of the drug-resistant phenotype in cell lines, α-enolase expression was silenced using RNAi. Briefly, the following siRNA duplexes targeting the human α-enolase mRNA were designed and purchased either from Ambion (Austin, Tex.) or Invitrogen (Carlsbad, Calif.). […] [NT] ID NO: 2) targeting the mRNA sequence corresponding to nucleotides […] from the start of the transcript (Ref Seq ID number: NM-001428). […] In another tube, […] of Oligofectamine reagent (Invitrogen, Carlsbad, Calif.) is mixed with […] of Opti-MEM. The two solutions are combined and mixed gently by inversion and incubated for 20 min. at RT. […] The next day the transfected cells were trypsinized and seeded in 6 or 96-well plates and further incubated for the indicated amount of time (assay dependent) before further analysis.

[2] = test system: A549 cells; assay: Cell adhesion assay on collagen-coated plates; type: cell-based, human; settings: A549 cells vs normal α-enolase levels
Procedure: Cell adhesion assays were performed using an MTT-based cell assay, as described in FIGS. 8C and 8D. […] The attachment of cells to the surface of the well was counted and a proportion of cells that attached to the surface during the experimental period was determined.

[3] = test system: MCF-7 cells; assay: Annexin-V apoptosis assay, MCF-7; type: cell-based, human; settings: MCF-7 cells vs control siRNA
Procedure: Apoptotic cells were measured following incubation with siRNAs. This assay was performed to determine the number of cells that were now susceptible to chemotherapeutic drugs. Cells transfected with siRNA were seeded in Lab-Tek 16-well chamber slides (Electron Microscopy Sciences, Hatfield, Pa.) at 10^4 cells/well 48 hrs post-transfection. Apoptosis was determined 16 hours later by annexin-V staining using the Annexin-V FLUOS kit (Roche, Ltd., Basel, CH) following the manufacturer's instructions. Slides were observed under a fluorescence microscope and images were taken using an Olympus digital camera and the Q-Capture software (QImaging, Burnaby, BC, CA).

[4] = test system: MCF-7/ADR xenografts; assay: MCF-7/ADR xenografts in nude mice; type: in vivo; settings: 3 μg daily for 16 days, with chemotherapeutic drugs
Procedure: In further studies, the efficacy of a α-enolase-targeted therapeutic in treating an MDR mammary adenocarcinoma cells (MCF/AR) is assessed. Briefly, male […] nude mice 5-7 weeks old, weighing 18 g-22 g are used for the MCF-7/ADR xenografts. Mice receive a subcutaneous (s.c.) injection of the cells using 5×10^5 cells/inoculation under the shoulder. When the s.c. tumor is approximately 5.5 mm in size, mice are randomized into treatment groups of 4 including controls and groups receiving taxol or doxorubicin, alone (4 mg/kg), intraperitoneally (i.p.) every 2 days, α-enolase siRNA alone (3 μg daily for 16 days), or both taxol and α-enolase siRNA (3 μg daily for 16 days for each treatment). […] The animal's weight is measured every 4 days. Tumor growth starting on the first day of treatment is measured and the volume of the xenograft is monitored every 4 days. The mice are anaesthetized and sacrificed when the mean tumor weight is over 1 g in the control group. Tumor tissue is excised from the mice and its weight is measured. […]
In further studies, the efficacy of a α-enolase-targeted therapeutic in treating an mammary adenocarcinoma cells (MCF-7) is assessed. […] The animal's weight is measured every 4 days. Tumor growth starting on the first day of treatment is measured and the volume of the xenograft is monitored every 4 days. […] Tumor tissue is excised from the mice and its weight is measured. […]

## α-enolase siRNA: siRNA duplex targeting human α-enolase mRNA; sense 5′-GGCUGUUGAGCACAUCAAUtt-3′ (SEQ ID NO: 1), antisense SEQ ID NO: 2; Ambion (antisense AUUGAUGUGCUCAACAGCC; bought from Ambion, sense has tt overhang, further chemistry not given here)
[1]; six days post-transfection
  reduction of α-enolase expression: 90%
[1]; three days post-transfection
  reduction of α-enolase expression: 77%
[1]; Detroit fibroblast cells, three days of treatment
  α-enolase expression: significant down-regulation
[1]; MDA-435 cells, 6 days post-transfection
  α-enolase level relative to control transfected cells: 14%
[1]; six days
  decrease of levels of expression of α-enolase: 92%
[1]; three days
  decrease of levels of expression of α-enolase: 67%
[1]; variety of cell lines
  decrease of α-enolase protein expression: 50-80%
[2]
  increase of cell adhesion to collagen-coated plates: 40%
[3]
  Annexin-V positive cells: Annexin-V positive cells were detected; also recorded: substantial amount of Annexin-V-positive cells
[4]
  total cell number in tumors vs control siRNA: lower
  tumor weight vs control siRNA: smaller tumors by weight
